Key:
Type in all cases: cell-based
Moraxella osloensis [1] = test: Examination example: suppression of metabolite 4-methyl-3-hexenoic acid, components (a) and (b)/(b′)
Experimental: After culture on fabric prepared in the same manner as in the above (1), 3 ml of methanol was added, and extraction was carried out under ultrasonic irradiation for 30 minutes (20° C.). The extraction liquid was mixed with (a 1000 ppm methanol solution of) an ADAM reagent of Funakoshi Co., Ltd. at 1:1 (volume ratio) and left overnight under room temperature and dark place conditions. After that, 4-methyl-3-hexenoic acid as a metabolite from 14-methylhexadecanoic acid was quantified by HPLC. The quantification conditions are as follows.
Eluent: acetonitrile 61% (v/v), water 39% (v/v) Column temperature: 40° C. Sample injection volume: 10 μL Flow rate: 1.0 mL/min
The production amount of 4-methyl-3-hexenoic acid after culture on the fabric to which the metabolism controlling agent was added was quantified, and the ratio of the production amount to that of 4-methyl-3-hexenoic acid in the case of adding no metabolism controlling agent (control) was calculated as a metabolite suppression rate (%). The higher a numerical value thereof is, the more the metabolism is suppressed. Note that the metabolite suppression rate was determined by the following formula. In references 1-1, 2-1, 3-1 and 4-1, which are controls, the metabolite suppression rate is 0%.
Metabolite suppression rate(%)=100×[(D−C)/D] • C: production amount of metabolite of reference or examination example (μg/fabric g) • D: production amount of metabolite of control (μg/fabric g)

Moraxella osloensis [2] = test: Examination example: suppression of metabolism of 14-methylhexadecanoic acid, components (a) and (b)/(b′); conditions: for Metabolism of branched fatty acid: Residual amount (μg/fabric g): 14-methylhexadecanoic acid
Experimental: The suppression of metabolism of 14-methylhexadecanoic acid by bacteria of the genus Moraxella and the suppression of a metabolite therefrom were tested in the following manner.
Moraxella osloensis (strain isolated from clothing) was precultured on an SCD-LP agar medium (NIHON PHARMACEUTICAL CO., LTD.) at 37° C.; for 24 hours, and a bacterial suspension of 10^6 (CFU/ml) was prepared by using an NB liquid medium (Difco) diluted to 1/20 with ion exchange water.
A methanol solution in which 14-methylhexadecanoic acid (SIGMA-ALDRICH) was dissolved was added dropwise to 3 cm×3 cm pieces of sterilized plain-weave cotton fabric to make it adhered to the fabric. The adhesion amount of 14-methylhexadecanoic acid was set to 10 μg per piece of the plain-weave cotton fabric (100 μg/fabric g). Further, a methanol solution in which component (a) was dissolved, and then, a methanol solution in which component (b) or (b′) was dissolved were added dropwise to the fabric to which 14-methylhexadecanoic acid adhered, and it was thereafter dried for an hour. This fabric was placed in a sterilized screw tube bottle No. 3 (Maruemu Corporation) and 100 μl of the bacterial suspension was inoculated thereto, and culture was carried out under 37° C.; conditions for 21 hours.
3 ml of methanol was added to the screw tube bottle after culture, and extraction was carried out under ultrasonic irradiation for 30 minutes (20° C.). The extraction liquid was mixed with a (trimethylsilyl)diazomethane hexane solution (FUJIFILM Wako Pure Chemical Corporation) at 9:1 (volume ratio) and left overnight under room temperature and dark place conditions. After that, 14-methylhexadecanoic acid remaining on the fabric was quantified by GC. The quantification conditions for GC are as follows. • GC: Agilent 6890N • GC column: Agilent DB-1 30 m×250 μm×0.25 μm • Temperature rise condition: 50° C. (held for 3 minutes)-(10° C./min)-300° C. (held for 5 minutes) • Sample injection volume: 1 μl • Split ratio: 1:12 • Detector: FID
The residual amount of 14-methylhexadecanoic acid after culture on the fabric to which each metabolism controlling agent was added was quantified, and the ratio of the residual amount to that of 14-methylhexadecanoic acid in the case of adding no metabolism controlling agent (control) was calculated as a metabolism suppression rate (%). The higher a numerical value thereof is, the more the metabolism is suppressed. Note that the metabolism suppression rate was determined by the following formula:
Metabolism suppression rate(%)=[1−(100−A)/(100−B)]×100 • A: residual amount of 14-methylhexadecanoic acid of reference or examination example (μg/fabric g) • B: residual amount of 14-methylhexadecanoic acid of control (μg/fabric g)
A control is an example in which none of component (a), (b) or (b′) is added, and references 1-1, 2-1, 3-1 and 4-1 qualify as this (the same applies hereinafter). In these controls, the metabolism suppression rate is 0′.

Moraxella osloensis [3] = test: Examination example: measurement of viable bacterial count
Experimental: After culture on fabric prepared in the same manner as in the above (1), 9 mL of an LP diluent (manufactured by NIHON PHARMACEUTICAL CO., LTD.) was added, and the extraction of the bacteria was carried out under ultrasound for 10 minutes. The extraction liquid was poured and mixed to an SCD-LP agar medium (NIHON PHARMACEUTICAL CO., LTD.), and culture was thereafter carried out at 37° C.; for a day. The number of colonies obtained on each piece of the fabric was counted, and a common logarithm value thereof was measured as the viable bacterial count. […] In addition, the […], the more the viable bacterial count of the microorganism is maintained.

Row | SMILES | Product of metabolism of branched fatty acid: Metabolite suppression rate (%) (Moraxella osloensis [1]; single agent 1 μg/fabric g) | Product of metabolism of branched fatty acid: Production amount (μg/fabric g) (Moraxella osloensis [1]; single agent 1 μg/fabric g) | Product of metabolism of branched fatty acid: Metabolite suppression rate (%) (Moraxella osloensis [1]; single agent 2 μg/fabric g) | Product of metabolism of branched fatty acid: Production amount (μg/fabric g) (Moraxella osloensis [1]; single agent 2 μg/fabric g) | Product of metabolism of branched fatty acid: Metabolite suppression rate (%) (Moraxella osloensis [1]; single agent 5 μg/fabric g) | Product of metabolism of branched fatty acid: Production amount (μg/fabric g) (Moraxella osloensis [1]; single agent 5 μg/fabric g) | Metabolism of branched fatty acid: Residual amount (μg/fabric g) (Moraxella osloensis [2]; single agent 1 μg/fabric g) | Metabolism of branched fatty acid: Residual amount (μg/fabric g) (Moraxella osloensis [2]; single agent 2 μg/fabric g) | Metabolism of branched fatty acid: Residual amount (μg/fabric g) (Moraxella osloensis [2]; single agent 5 μg/fabric g) | Metabolism of branched fatty acid: Metabolism suppression rate (%) (Moraxella osloensis [2]; single agent 1 μg/fabric g) | Metabolism of branched fatty acid: Metabolism suppression rate (%) (Moraxella osloensis [2]; single agent 2 μg/fabric g) | Metabolism of branched fatty acid: Metabolism suppression rate (%) (Moraxella osloensis [2]; single agent 5 μg/fabric g) | Viable bacterial count (Log (cfu/fabric cm^2)) (Moraxella osloensis [3]; single agent 1 μg/fabric g) | Viable bacterial count (Log (cfu/fabric cm^2)) (Moraxella osloensis [3]; single agent 2 μg/fabric g) | Viable bacterial count (Log (cfu/fabric cm^2)) (Moraxella osloensis [3]; single agent 5 μg/fabric g) | also measured
1 | Oc1cc(Cl)ccc1Oc1ccc(Cl)cc1 [Diclosan, 4-4′-dichloro-2-hydroxydiphenyl ether] | 5% | 4.2 μg/fabric g | 14% | 3.8 μg/fabric g | 41% | 2.6 μg/fabric g | 43 μg/fabric g | 46 μg/fabric g | 56 μg/fabric g | 7% | 11% | 27% | 6.2 Log (cfu/fabric cm^2) | 6.0 Log (cfu/fabric cm^2) | 5.1 Log (cfu/fabric cm^2) | –
2 | C/C=C/C/C=C/CCC(=O)[C@H]1O[C@H]1C(N)=O [Cerulenin, [2R,3S]-2,3-epoxy-4-oxo-7,10-trans,trans-dodecanoic acid amide] | – | – | – | – | 2% | 4.3 μg/fabric g | – | – | 39 μg/fabric g | – | – | 0% | – | – | 6.1 Log (cfu/fabric cm^2) | Product of metabolism of branched fatty acid: Metabolite suppression rate (%) (Moraxella osloensis [1]; single agent 10 μg/fabric g): 9%; Product of metabolism of branched fatty acid: Production amount (μg/fabric g) (Moraxella osloensis [1]; single agent 10 μg/fabric g): 4.0 μg/fabric g; Product of metabolism of branched fatty acid: Metabolite suppression rate (%) (Moraxella osloensis [1]; single agent 20 μg/fabric g): 11%; Product of metabolism of branched fatty acid: Production amount (μg/fabric g) (Moraxella osloensis [1]; single agent 20 μg/fabric g): 3.9 μg/fabric g; Metabolism of branched fatty acid: Residual amount (μg/fabric g) (Moraxella osloensis [2]; single agent 10 μg/fabric g): 41 μg/fabric g; Metabolism of branched fatty acid: Residual amount (μg/fabric g) (Moraxella osloensis [2]; single agent 20 μg/fabric g): 48 μg/fabric g; Metabolism of branched fatty acid: Metabolism suppression rate (%) (Moraxella osloensis [2]; single agent 10 μg/fabric g): 3%; Metabolism of branched fatty acid: Metabolism suppression rate (%) (Moraxella osloensis [2]; single agent 20 μg/fabric g): 15%; Viable bacterial count (Log (cfu/fabric cm^2)) (Moraxella osloensis [3]; single agent 10 μg/fabric g): 6.3 Log (cfu/fabric cm^2); Viable bacterial count (Log (cfu/fabric cm^2)) (Moraxella osloensis [3]; single agent 20 μg/fabric g): 6.3 Log (cfu/fabric cm^2)
3 | N#CC(C#N)=NNc1cccc(Cl)c1 [CCCP, carbonylcyanide-m-chlorophenylhydrazone] | – | – | 25% | 3.3 μg/fabric g | 36% | 2.8 μg/fabric g | – | 44 μg/fabric g | 56 μg/fabric g | – | 8% | 28% | – | 6.1 Log (cfu/fabric cm^2) | 5.5 Log (cfu/fabric cm^2) | –
4 | Oc1cc(Cl)ccc1Oc1ccc(Cl)cc1Cl [Triclosan, 2,4,4′-trichloro-2′-hydroxydiphenyl ether] | 5% | 4.2 μg/fabric g | 7% | 4.1 μg/fabric g | – | – | 38 μg/fabric g | 44 μg/fabric g | – | −2% | 8% | – | 6.2 Log (cfu/fabric cm^2) | 6.0 Log (cfu/fabric cm^2) | – | Metabolism of branched fatty acid: Residual amount (μg/fabric g) (Moraxella osloensis [2]; single agent 0.5 μg/fabric g): 43 μg/fabric g; Metabolism of branched fatty acid: Metabolism suppression rate (%) (Moraxella osloensis [2]; single agent 0.5 μg/fabric g): 6%; Viable bacterial count (Log (cfu/fabric cm^2)) (Moraxella osloensis [3]; single agent 0.5 μg/fabric g): 6.2 Log (cfu/fabric cm^2)

Reference: patent US20220408724A1, “METHOD FOR CONTROLLING METABOLISM OF BRANCHED FATTY ACID” (KAO CORPORATION, priority 2019, published 2022)
